In PubChem BioAssay AID256 (DTP/NCI, 2004):
“And” between values parts separate entries of the source, which are not always exact repeats. Equal entries are not always repeated. Toxic doses and inconclusive results are not listed. Rule for the calls: active = survival T/C of 150% or more; inactive = T/C below 125% in these data.

Test system: CD2F1 mice, L1210 leukemia ip, survival T/C
Assay: NCI In Vivo Anticancer Drug Screen. Data for tumor model L1210 Leukemia (intraperitoneal) in CD2F1 (CDF1) mice
Details: endpoint: mean survival time, higher = longer survival
In short: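 In this screen, transplantable tumors were grown in mice given either the compound or its vehicle. Results were expressed as the treated measurement relative to the control measurement.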

[1] = dose: 50.0 mg/kg/injection, schedule: Q01DX009 (ip), vehicle: saline with Tween-80
[2] = dose: 100.0 mg/kg/injection, schedule: Q01DX009 (ip), vehicle: saline with Tween-80
[3] = dose: 100.0 mg/kg/injection, schedule: Q04DX003 (ip), vehicle: saline with Tween-80
[4] = dose: 200.0 mg/kg/injection, schedule: Q01DX009 (ip), vehicle: saline with Tween-80
[5] = dose: 200.0 mg/kg/injection, schedule: Q04DX003 (ip), vehicle: saline with Tween-80
[6] = dose: 25.0 mg/kg/injection, schedule: Q01DX009 (ip), vehicle: water
[7] = dose: 50.0 mg/kg/injection, schedule: Q01DX009 (ip), vehicle: water
[8] = dose: 100.0 mg/kg/injection, schedule: Q01DX009 (ip), vehicle: water
[9] = dose: 400.0 mg/kg/injection, schedule: Q04DX003 (ip), vehicle: saline with Tween-80
[10] = dose: 100.0 mg/kg/injection, schedule: Q04DX003 (ip), vehicle: saline
[11] = dose: 400.0 mg/kg/injection, schedule: Q01DX009 (ip), vehicle: saline with Tween-80
[12] = dose: 25.0 mg/kg/injection, schedule: Q04DX003 (ip), vehicle: saline

Measured: T/C

CCNC1=C(C)C(=O)C2=C(C1=O)C(COC(N)=O)C1(O)C3C(CN21)N3C (stereo unspecified)
inactive: dose: 1.5 mg/kg/injection, schedule: Q01DX001 (ip), vehicle: saline 98 % of control | dose: 3.0 mg/kg/injection, schedule: Q01DX001 (ip), vehicle: saline 95 % of control | dose: 6.0 mg/kg/injection, schedule: Q01DX001 (ip), vehicle: saline 101 % of control | dose: 12.0 mg/kg/injection, schedule: Q01DX001 (ip), vehicle: saline 93 % of control | dose: 24.0 mg/kg/injection, schedule: Q01DX001 (ip), vehicle: saline 95 % of control | dose: 30.0 mg/kg/injection, schedule: Q01DX001 (ip), vehicle: water 100 % of control | dose: 60.0 mg/kg/injection, schedule: Q01DX001 (ip), vehicle: water 101 % of control

CCNc1nc(NCC)nc(OC)n1
inactive: [1] 95 % of control | [2] 105 % of control | [3] 87 % of control | [4] 103 % of control | [5] 89 % of control

CCCCC#CCOCC(O)CCl (stereo unspecified)
inactive: [6] 95 % of control | [7] 107 % of control | [8] 103 % of control | dose: 200.0 mg/kg/injection, schedule: Q01DX009 (ip), vehicle: water 100 % of control

O=C1C=CC(=O)N1c1ccc(F)cc1 (tested in a mixture with another compound)
inactive: [1] 96 % of control | [2] 91 % of control | [4] 86 % of control

O=C(Nc1ccc(NC(=O)c2ccccc2)c2ccccc12)c1ccccc1
inactive: [3] 92 % of control | [9] 92 % of control

CCOC(=O)Cc1cccc(CC(O)(c2ccccc2)c2ccccc2)n1
inactive: [2] 100 % of control | [10] 92 % of control | [4] 98 % of control | dose: 200.0 mg/kg/injection, schedule: Q04DX003 (ip), vehicle: saline 90 % of control | [11] 100 % of control | dose: 400.0 mg/kg/injection, schedule: Q04DX003 (ip), vehicle: saline 87 % of control

NS(=O)(=O)Cc1ccccc1
inactive: [12] 107 % of control | dose: 50.0 mg/kg/injection, schedule: Q04DX003 (ip), vehicle: saline 117 % of control | [10] 90 % of control and 92 % of control

CC(=O)C(=O)C1=C2CCCN2CCc2cc3c(cc21)OCO3
inactive: dose: 12.5 mg/kg/injection, schedule: Q01DX009 (ip), vehicle: water 96 % of control | [6] 94 % of control | [7] 91 % of control | [8] 96 % of control

COc1ccc2cc(CC(=O)c3ccccc3)ccc2c1
inactive: [2] 100 % of control | [4] 96 % of control | [11] 90 % of control

Cc1ccc(N2OCCN(C(=O)c3cc([N+](=O)[O-])cc([N+](=O)[O-])c3)C2c2ccccc2)cc1 (stereo unspecified)
inactive: [2] 91 % of control | [4] 95 % of control | [11] 91 % of control

CC1CCCCC1NC(=O)Nc1ccccc1 (stereo unspecified)
inactive: [3] 94 % of control | [5] 92 % of control

CCN(CC)CCOc1ccc(NC(=O)c2ccccc2)cc1
inactive: dose: 6.25 mg/kg/injection, schedule: Q04DX003 (ip), vehicle: saline 101 % of control | dose: 12.5 mg/kg/injection, schedule: Q04DX003 (ip), vehicle: saline 101 % of control | [12] 104 % of control

N#CCCOC1CCCCC1
inactive: [3] 98 % of control | [5] 93 % of control | [9] 93 % of control

CCN(CC)CCNc1c2ccc(Cl)cc2nc2c1c(C)nn2C
inactive: [3] 95 % of control | [5] 100 % of control | [9] 100 % of control
